Assay results reported in patent US20080206287A1, “Use of cyclosporin A to sensitize resistant cancer cells to death receptor ligands” (priority 2006, published 2008).
“Also recorded” adds a separate entry of the source. Residues, ends and D or L forms follow the SMILES beside them. *: point of attachment. Cbz = O=C(OCc1ccccc1)*; CH2F = FC*

How the values were obtained:
[1] = system: PPC-1 cells; conditions: positive control, Kim et al. 2002; cited from earlier work
[2] = system: FLIP; conditions: Kim et al. 2002; cited from earlier work
[3] = system: PPC-1 cells; experiment: Extrinsic (CH-11, TRAIL) versus intrinsic (VP-16, STS) pathway stimuli, MTT; type: cell-based; conditions: MTT 24 hours
Text: Identification of small molecules that specifically sensitize to extrinsic pathway. The nine compounds identified using anti-FAS antibody screening theoretically could non-specifically sensitize tumor cells to apoptotic stimuli or they could be selective for the extrinsic pathway. To distinguish between these two possibilities, the effects of compounds on apoptosis induced by extrinsic pathway stimuli (e.g., CH-11 antibody; TRAIL) were compared to the effects on the intrinsic pathway stimuli (e.g., etoposide [VP16]; staurosporine [STS]). Accordingly, PPC-1 cells were treated with various concentrations of compounds with or without CH-11, TRAIL, VP-16, or STS, and 24 hours later, cell viability was measured by MTT assays.

[4] = system: PPC-1 cells; experiment: PPC-1 cell viability (MTT) with or without CH-11 anti-FAS antibody; type: cell-based; conditions: Homo sapiens, PPC-1, read-out: EC50 as a FAS-sensitizer in PPC1 cells
Experimental: High throughput screening. Screens were performed using a fully integrated, programmable robotic liquid handling system (Biomek® FX, Beckman-Coulter Inc., Fullerton, Calif.), with integrated plate reader (LJL analyst HT 96-384, Sunnyvale, Calif.) and environmentally controlled plate carousel set at 37° C. and 5% CO2:95% air. PPC-1 cells (1×10^4) were seeded overnight into 96 well, flat-bottom plates (Costar, Cambridge, Mass.) in 100 μL of medium containing 2.5% FCS. The next day, aliquots from the 50,000 compound Diversa library were added at a final concentration of 7.5 μg/mL (about 25 μM) in a final concentration of 0.5% (v:v) dimethylsulfoxide (DMSO). CH-11 antibody (100 ng/mL) was then added, and the cells were incubated for 24 hours before assessing cell viability by a 3-(4,5-Dimethylthiazol-2-yl)-2,5-diphenyltetrazolium Bromide (MTT) dye reduction assay (Sigma).
(§1) Cell death assays. Cell viability was measured by MTT and MTS assays, essentially as described in Schimmer et al. (Cancer Cell 5:25-35, 2004). Absorbance readings were plotted against a standard curve to derive the corresponding cell number, and cell viability was expressed as a percentage relative to untreated cells. Apoptosis was measured by flow cytometric analysis of Annexin V surface expression after staining cells with FITC-anti-Annexin V and propidium iodide (PI) (Biovision, Mountain View, Calif.), as described in Pedersen et al. (Blood 100:2965-72, 2002).
Statistics. Cytotoxicity induced by compounds used in combination with conventional agents (e.g., CH-11, TRAIL, VP-16 and staurosporine) was evaluated for evidence of synergy toxicity by comparing the slopes of the dose-response curves. If the combination of the potential sensitizing compound with the conventional agent increased the slope of the dose-response curve compared to the slopes of either the sensitizer or the conventional agent alone, then the interaction was considered synergistic. […] Statistical significance was defined as a p<0.01, using two-sided tests. Synergy was confirmed by performing multiple drug dose-effect calculations using the Median Effect methods as described in Chou (“The Median-Effect Principle and the Combination Index for Quantitation of Synergism and Antagonism.” In: D. C. Rideout and T. C. Chou (eds.), Synergism and Antagonism in Chemotherapy, pp. 61-102: Academic Press, Inc., 1991).
Identification of small molecule FAS sensitizers. Resistance to death receptor ligands may permit malignant cells to escape immune surveillance and limit the clinical efficacy of recombinant death receptor ligands such as TRAIL. To identify small molecules that restore sensitivity to death receptor ligands, a cell-based high throughput screen was performed using the FAS and TRAIL-resistant prostate cancer cell line PPC-1 and a commercially available 50,000 compound library. The screens were performed in 96 well plates, to which compounds were added at 7.5 μg/ml (about 25 μM), followed by agonistic anti-FAS monoclonal antibody CH-11 (100 ng/mL). Cell viability was measured 24 hours later by MTT assay. […] The coefficient of variation (CV) for PPC-1 cells treated with CH-11 alone was determined to be 5%, based on 90 replicate determinations. A 50% decrease in cell viability was used as a cut-off for scoring hits.
From the primary screen of 50,000 compounds, 313 reproducible hits were obtained. To determine whether any of the 313 compounds were toxic molecules as opposed to FAS-sensitizers, the 313 compounds were evaluated in secondary screens where PPC-1 cells were treated with increasing concentrations of the compounds in the presence or absence of CH-11 antibody. Through these secondary screens, nine sensitizers were identified that increased CH-11-mediated killing above the cell death produced by treatment of the cells with the compound alone (Table 1). […]

[5] = system: FLIP; experiment: FLIP protein immunoblot; type: cell-based, human
Experimental: Immunoblot analysis. Protein extracts were obtained by washing cells with phosphate-buffered saline (PBS) [pH 7.4] and suspending the cells in lysis buffer [10 mM Tris (pH 7.4), 150 mM NaCl, 0.1% Triton X-100, 0.5% sodium deoxycholate, and 5 mM EDTA] containing protease inhibitors (Complete tablets; Roche, Indianapolis, Ind.). Immunoblot assays were performed as described in Carter et al. (Blood 105:4043-4050, 2005). Briefly, equal amounts of protein as determined by a Bradford assay (Bradford, Anal. Biochem. 72:248-54, 1976) were subjected to SDS-PAGE (4-20% gradient gels from ISC BioExpress, Kaysville, Utah), followed by transfer to nitrocellulose membranes. Membranes were incubated with mouse monoclonal anti-human FLIP (NF6 clone) (1:500 v/v) (Alexis, San Diego, Calif.), 1:1,000 (v/v) anti-aspase-8 clone 5F7 (Upstate) and mouse monoclonal anti-tubulin (1:2000 v/v) (Sigma Inc). Secondary antibodies consisted of horseradish peroxidase-conjugated goat anti-rabbit IgG or goat anti-mouse IgG (Bio-Rad, Hercules, Calif.). Detection was performed by the enhanced chemiluminescence method (Pierce, Rockford, Ill.).
Effects of sensitizing compounds on FLIP protein. Since FAS-sensitizing compounds 6094911 and 5809354 modulate the extrinsic pathway downstream of TNF-family death receptors but upstream of effector caspases, the effects of those compounds on expression of FLIP, an intracellular antiapoptotic protein that binds caspases-8 and -10 and is capable of suppressing death receptor signaling at a proximal point within the extrinsic pathway, was examined. For these experiments, PPC-1 cells were treated with sensitizing compounds in the presence or absence of CH-11 antibody, then cell lysates were prepared 24 hours later, and analyzed by immunoblotting for FLIP.
The levels of the short isoform of FLIP were less than 5% of total FLIP protein as measured by immunoblotting and quantitative densitometry. Therefore, given the very low levels of the short isoform, the analysis was limited to the effects of the compounds on the long isoform of FLIP.

[6] = system: PPC-1 cells; experiment: Annexin V apoptosis with CH-11, sensitizers and caspase inhibitors; type: cell-based; conditions: CH-11 and sensitizers such as 6094911, 5809354, 5569100, 12 hours
Experimental: as §1
Caspase-dependent induction of apoptosis by combination treatment with CH-11 and FAS-sensitizing compounds. To further assess the mechanism of the 8 compounds that selectively modulated tumor sensitivity to extrinsic pathway stimuli, the effects of […]-Val-Ala-Asp-fluoromethylketone (zVAD-fmk), a broad-spectrum irreversible inhibitor of caspase-family proteases (Enzyme Systems, Dublin, Calif.) was tested. Accordingly, PPC-1 cells were treated with CH-11 and sensitizers such as 6094911, 5809354, and 5569100 with and without zVAD-fmk (100 μM) for 12 hours. Apoptosis was then measured by Annexin V staining.

CC1(C)CC[C@]2(C(=O)O)CC[C@]3(C)[C@H](C(=O)C=C4[C@@]5(C)C=C(C#N)C(=O)C(C)(C)[C@@H]5CC[C@]43C)[C@@H]2C1 [CDDO, 2-cyano-3,12-dioxooleana-1,9-dien-28-oic acid]
sensitization of PPC-1 cells to TNF-family death receptors and ligands [1]: sensitize PPC-1 cells to TNF-family death receptors and ligands | FLIP protein levels [2]: reduce FLIP protein levels; also recorded: reduces FLIP expression

C[n+]1ccn2c3c(c4cc(C5CCCCC5)ccc42)CCCc31.[I-] [compound 5362611, 8-Cyclohexyl-3-methyl-5,6-dihydro-4H-pyrazino[3,2,1-jk]carbazol-3-ium; iodide]
sensitization to extrinsic (CH-11, TRAIL) and intrinsic (VP-16, STS) pathway stimuli [3]: sensitized to both the death receptor (extrinsic) and mitochondrial pathway (intrinsic) stimuli

Cn1c(=N)n(CC(=O)c2cc(C(C)(C)C)c(O)c(C(C)(C)C)c2)c2ccccc21 [compound 5541203, 1-(3,5-Di-tert-butyl-4-hydroxy-phenyl)-2-(2-imino-3-methyl-2,3-dihydro-benzoimidazol-1-yl)-ethanone]
EC50 [4]: 25.7 µM | levels of FLIP protein (long isoform) ([5]; PPC-1 cells, with or without CH-11, 24 hours, immunoblot): had little effect

COC(=O)C[C@H](NC(=O)[C@H](C)NC(=O)[C@@H](NC(=O)OCc1ccccc1)C(C)C)C(=O)CF [zVAD-fmk, reference compound] (Cbz-Val-Ala-Asp(OMe)-CH2F)
effect of caspase inhibitor on apoptosis by CH-11 plus sensitizers [6]: blocked sensitization to CH-11 | effect of caspase inhibitor pre-treatment on reductions in FLIP protein ([5]; pre-treatment before 5809354 or 5569100): did not prevent reductions in FLIP protein
